Measured values as given in US20210205329A1 (The University of North Carolina at Chapel Hill, priority 2018, published 2021).
“And” between values parts separate entries of the source, which are not always exact repeats. Equal entries are not always repeated.

Assays:
TLR4/GABAAR α2 binding = biological target: T1, TLR4/GABAAR α2 binding (Rattus norvegicus, UniProt Q9QX05); experiment: TLR4/GABAAR α2 co-immunoprecipitation in P rat VTA; format: in vivo; settings: 15 mg/kg IP, P rats
T1 construct: from tissue; host or cells: ventral tegmental area (VTA) of alcohol-preferring (P) rats
T1 sequence (Q9QX05 26-835): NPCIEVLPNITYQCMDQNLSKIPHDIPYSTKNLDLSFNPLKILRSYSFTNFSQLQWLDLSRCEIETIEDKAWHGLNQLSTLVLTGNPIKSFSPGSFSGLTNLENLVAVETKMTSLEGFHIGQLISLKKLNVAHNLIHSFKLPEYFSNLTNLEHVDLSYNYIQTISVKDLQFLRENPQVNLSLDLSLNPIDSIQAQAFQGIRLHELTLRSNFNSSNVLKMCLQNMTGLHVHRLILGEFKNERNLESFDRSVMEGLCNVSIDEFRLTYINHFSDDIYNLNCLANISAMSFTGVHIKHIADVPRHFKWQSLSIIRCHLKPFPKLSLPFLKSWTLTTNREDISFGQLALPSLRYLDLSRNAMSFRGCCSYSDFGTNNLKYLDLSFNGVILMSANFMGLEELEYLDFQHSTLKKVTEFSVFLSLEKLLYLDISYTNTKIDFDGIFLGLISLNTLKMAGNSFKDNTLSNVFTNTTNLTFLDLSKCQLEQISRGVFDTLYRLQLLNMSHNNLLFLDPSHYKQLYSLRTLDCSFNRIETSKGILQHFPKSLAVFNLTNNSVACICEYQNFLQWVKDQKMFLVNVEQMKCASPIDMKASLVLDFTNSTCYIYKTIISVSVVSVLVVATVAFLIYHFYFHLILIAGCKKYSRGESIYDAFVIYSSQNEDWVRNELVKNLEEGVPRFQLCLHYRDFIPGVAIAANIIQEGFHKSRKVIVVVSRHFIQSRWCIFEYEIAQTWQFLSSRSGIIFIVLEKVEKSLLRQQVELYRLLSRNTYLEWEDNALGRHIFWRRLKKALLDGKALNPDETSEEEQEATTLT
Description: (§1) Co-Immunoprecipitation Assay RAW264.7 cells [treated with LPS (1 μg/ml), 3α,5α-THP (1 μM) or pregnenolone (1 μM)] were exposed to chemical protein crosslinking (Poulopoulos et al, 2009) at 24 hrs post-treatment. Briefly, the cells were incubated (20 min on ice) with 1 mM of the cleavable, membrane-permeable crosslinker DSP (Thermo Fisher Scientific, Cat. #PG82081). Rat VTA homogenates were incubated (20 min on ice) with 200 μM of DSP. The crosslinker was quenched in 1 M Tris buffer (pH 7.5) (to a final concentration of 10-20 mM), and the material was centrifuged at 21,000×g for 15 min. Proteins from the cells were extracted with Pierce IP Lysis Buffer (Thermo Fisher Scientific, Cat. #87787) supplemented with protease and phosphatase inhibitor cocktails (Sigma). Proteins from the VTA were extracted with CelLytic MT (dialyzable mild detergent, bicine and 150 mM NaCl; Sigma Aldrich, St. Louis, Mo., USA, Cat. #C3228) supplemented with protease and phosphatase inhibitor cocktails (Sigma) according to the manufacturers instructions. […]

HMGB1 binding to TLR4 = biological target: T2, HMGB1 binding to TLR4 (Rattus norvegicus, UniProt Q9QX05); experiment: TLR4/HMGB1 co-immunoprecipitation in P rat VTA; format: in vivo; settings: 15 mg/kg IP, P rats
T2 construct: from tissue; host or cells: ventral tegmental area (VTA) of alcohol-preferring (P) rats
T2 sequence (Q9QX05 26-835): T1 sequence (Q9QX05 26-835)
Description: as §1

CC(=O)[C@H]1CC[C@H]2[C@@H]3CC[C@H]4C[C@H](O)CC[C@]4(C)[C@H]3CC[C@]12C [3α,5α-THP, (3α,5α)3-hydroxypregnan-20-one]
inhibition of TLR4/GABAAR α2 binding (α2 co-precipitating with TLR4) in VTA (TLR4/GABAAR α2 binding): 62.7±9.2% and 82.7±9.2% and ~80%
HMGB1 binding to TLR4 in VTA (HMGB1 binding to TLR4): not altered
